Measured values reported in patent publication US20060264422A1, “Use of taurolidine as enhancer of the complement system” (priority 2005, published 2006).

Legend:
C5a = experiment: ELISA of complement anaphylatoxin C5a in serum; assay type: biochemical, human
Description: (§1) Complement anaphylatoxins C5a and C3a and the lytic complex (MAC, C5b-9) in the serum of healthy volunteers were determined quantitatively using commercially available ELISA (“enzyme-linked immunosorbent assay”) test systems. As described above, initially serum samples having various concentrations of taurolidine (0.1-5%, in parallel with samples containing Ringer solution in corresponding dilution ratios=controls) were incubated for 30 minutes at 37° C. The samples were then diluted according to the protocol of the manufacturer and pipetted into the wells of the microtiter plate. The subsequent incubation/washing steps were carried out according to the protocol of the manufacturer. […] The extinction was measured using an ELISA plate reader and the values were then converted to concentrations using the standard samples which had also been measured.

[1] = tested on: membrane attack complex (MAC, C5b-9); experiment: ELISA of lytic complex (MAC, C5b-9) in serum; assay type: biochemical, human; conditions: all dosis ranges studied (0.1-5% taurolidine); FIG. 7
Description: as §1

complement system = experiment: CH50 assay (hemolysis of sensitized sheep erythrocytes by human serum); assay type: biochemical
Description: Using the CH50 assay, it is possible to assess functionally the total activity of the complement system, especially the classic activation pathway. […] In accordance with the protocol, a dilution series (1:20-1:480) was prepared for each condition and washed sheep erythrocytes which had been preincubated with hemolysin reagent were then added. During subsequent incubation at 37° C. for exactly 1 hour the erythrocytes were lysed depending on the activity of the complement system. In each experiment, a negative control (no hemolysis), a sample with 50% hemolysis (CH50, by dilution with dist. water) and a sample with 100% hemolysis (CH100, by dilution with dist. water) were analyzed in each case. After a final centrifugation, in each case 1 ml of the supernatant of each sample was removed and the absorption at 541 nm was determined photometrically. The determined absorptions were finally plotted against the dilutions. The activity (or the ability to lyse) of the complement system under the respective conditions could be assessed by the shape of the curves (shift to the left=complement activation) and by determining the dilution at which 50% of the erythrocytes have been lysed.

C3a = experiment: ELISA of complement anaphylatoxin C3a in serum; assay type: biochemical, human
Description: as §1

[2] = at 0.5% taurolidine (concentration maximum)

## O=S1(=O)CCN(CN2CCS(=O)(=O)NC2)CN1 [taurolidine, 4,4′-methylenebis-(1,2,4-thiadiazine-1,1-dioxide)]
C5a; at 0.1% taurolidine (minimum)
  C5a: no or even a tendency of reduced
C5a; [2]
  formation of C5a: enhances the formation
C5a; serum with taurolidine 0.1-5%, 30 min, 37° C., FIGS. 5-6
  concentration of complement component C5a compared to untreated serum: increased compared to untreated serum
[1]
  serum concentration of the membrane attack complex (MAC): elevated significantly
Complement system; human serum of healthy volunteers incubated with 0.1-1% taurolidine, 30 min, 37° C., FIGS. 1-3
  hemolytic activity (activity of the complement system): significantly increases
Complement system; incubation at 0-4° C., FIG. 2
  complement activation (hemolytic activity), temperature dependence: not at 0-4 °C
C3a; at 0.1% taurolidine (minimum)
  C3a: no or even a tendency of reduced
C3a; [2]
  formation of C3a: enhances the formation
C3a; serum with taurolidine 0.1-5%, 30 min, 37° C., FIG. 4
  concentration of complement component C3a compared to untreated serum: increased compared to untreated serum
